From the NIST ThermoML archive (doi:10.1021/je0602418)
Several values for one entry are separate records, joined by “and”; a condition that tells them apart may be missing. Identical values can stand only once. ± gives the expanded uncertainty stated by the source.

Conditions: Liquid; for Critical pressure / Critical temperature: pulse heating method

COC(=O)CCCCCCCC(=O)OC [dimethyl nonanedioate]
vapor or sublimation pressure (298.1 K): 0.00019 ± 2e-05 kPa | vapor or sublimation pressure (303.1 K): 0.00028 ± 3e-05 kPa | vapor or sublimation pressure (308.1 K): 0.00054 ± 5e-05 kPa | vapor or sublimation pressure (313.2 K): 0.0008 ± 8e-05 kPa and 0.00084 ± 8e-05 kPa | vapor or sublimation pressure (318.2 K): 0.00138 ± 0.00014 kPa and 0.00131 ± 0.00013 kPa | vapor or sublimation pressure (320.2 K): 0.00167 ± 0.00017 kPa and 0.00164 ± 0.00016 kPa | vapor or sublimation pressure (323.3 K): 0.00226 ± 0.00023 kPa | vapor or sublimation pressure (323.4 K): 0.00228 ± 0.00023 kPa | vapor or sublimation pressure (325.3 K): 0.00278 ± 0.00028 kPa | vapor or sublimation pressure (328.3 K): 0.00335 ± 0.00034 kPa and 0.00362 ± 0.00036 kPa | vapor or sublimation pressure (330.8 K): 0.00466 ± 0.00047 kPa | vapor or sublimation pressure (333.4 K): 0.00549 ± 0.00055 kPa and 0.00561 ± 0.00056 kPa | vapor or sublimation pressure (335.9 K): 0.00711 ± 0.00071 kPa | vapor or sublimation pressure (338.4 K): 0.00771 ± 0.00077 kPa and 0.00858 ± 0.00086 kPa | vapor or sublimation pressure (341 K): 0.01011 ± 0.001 kPa | vapor or sublimation pressure (343.4 K): 0.01171 ± 0.0012 kPa | vapor or sublimation pressure (343.8 K): 0.01311 ± 0.0013 kPa | vapor or sublimation pressure (348.5 K): 0.01757 ± 0.0018 kPa | vapor or sublimation pressure (348.6 K): 0.0185 ± 0.0019 kPa | vapor or sublimation pressure (351.1 K): 0.02169 ± 0.0022 kPa | vapor or sublimation pressure (353.6 K): 0.02548 ± 0.0026 kPa and 0.02436 ± 0.0024 kPa and 0.02518 ± 0.0025 kPa | vapor or sublimation pressure (358.6 K): 0.03663 ± 0.0037 kPa | vapor or sublimation pressure (358.7 K): 0.03635 ± 0.0036 kPa | vapor or sublimation pressure (360.2 K): 0.04123 ± 0.0041 kPa | vapor or sublimation pressure (363.7 K): 0.05391 ± 0.0054 kPa and 0.05451 ± 0.0054 kPa | vapor or sublimation pressure (366.2 K): 0.0656 ± 0.0066 kPa | vapor or sublimation pressure (368.9 K): 0.07601 ± 0.0076 kPa and 0.08031 ± 0.008 kPa | vapor or sublimation pressure (371.3 K): 0.08918 ± 0.0089 kPa and 0.08695 ± 0.0087 kPa | vapor or sublimation pressure (373.8 K): 0.1016 ± 0.01 kPa and 0.1065 ± 0.011 kPa

COC(=O)CCCCCCC(=O)OC [dimethyl octanedioate]
vapor or sublimation pressure (293.3 K, Transpiration method): 0.00062 ± 3e-05 kPa | vapor or sublimation pressure (295.3 K, Transpiration method): 0.00077 ± 4e-05 kPa | vapor or sublimation pressure (298.3 K, Transpiration method): 0.00105 ± 5e-05 kPa | vapor or sublimation pressure (303.2 K, Transpiration method): 0.00169 ± 8e-05 kPa | vapor or sublimation pressure (308.3 K, Transpiration method): 0.00273 ± 0.00014 kPa | vapor or sublimation pressure (313.2 K, Transpiration method): 0.00451 ± 0.00023 kPa | vapor or sublimation pressure (318.1 K, Transpiration method): 0.00698 ± 0.00035 kPa | vapor or sublimation pressure (323.1 K, Transpiration method): 0.01107 ± 0.00055 kPa | vapor or sublimation pressure (328.1 K, Transpiration method): 0.01684 ± 0.00084 kPa | vapor or sublimation pressure (333.1 K, Transpiration method): 0.02524 ± 0.0013 kPa | vapor or sublimation pressure (338.1 K, Transpiration method): 0.03923 ± 0.002 kPa | vapor or sublimation pressure (343 K, Transpiration method): 0.05566 ± 0.0028 kPa | vapor or sublimation pressure (348.1 K, Transpiration method): 0.08123 ± 0.0041 kPa | vapor or sublimation pressure (352.1 K, Transpiration method): 0.1083 ± 0.0054 kPa | Critical pressure: 2300 ± 140 kPa | Critical temperature: 723 ± 14 K

COC(=O)CCCC(=O)OC [dimethyl pentanedioate]
vapor or sublimation pressure (283.7 K): 0.00275 ± 0.00028 kPa | vapor or sublimation pressure (286.3 K): 0.00357 ± 0.00036 kPa | vapor or sublimation pressure (288.4 K): 0.0043 ± 0.00043 kPa | vapor or sublimation pressure (290.5 K): 0.00564 ± 0.00056 kPa | vapor or sublimation pressure (293.2 K): 0.00758 ± 0.00076 kPa | vapor or sublimation pressure (293.3 K): 0.00747 ± 0.00075 kPa | vapor or sublimation pressure (295.6 K): 0.00958 ± 0.00096 kPa | vapor or sublimation pressure (296.2 K): 0.00984 ± 0.00098 kPa | vapor or sublimation pressure (298.2 K): 0.01214 ± 0.0012 kPa | vapor or sublimation pressure (298.4 K): 0.01204 ± 0.0012 kPa | vapor or sublimation pressure (300.3 K): 0.01479 ± 0.0015 kPa | vapor or sublimation pressure (303.2 K): 0.01881 ± 0.0019 kPa | vapor or sublimation pressure (303.3 K): 0.0193 ± 0.0019 kPa | vapor or sublimation pressure (305.4 K): 0.02301 ± 0.0023 kPa | vapor or sublimation pressure (306.2 K): 0.02388 ± 0.0024 kPa | vapor or sublimation pressure (308.2 K): 0.02904 ± 0.0029 kPa | vapor or sublimation pressure (309.2 K): 0.03102 ± 0.0031 kPa | vapor or sublimation pressure (310.2 K): 0.03348 ± 0.0034 kPa | vapor or sublimation pressure (312.1 K): 0.03995 ± 0.004 kPa | vapor or sublimation pressure (313.2 K): 0.04146 ± 0.0042 kPa | vapor or sublimation pressure (313.5 K): 0.04323 ± 0.0043 kPa | vapor or sublimation pressure (315.2 K): 0.05031 ± 0.005 kPa | vapor or sublimation pressure (315.5 K): 0.05126 ± 0.0051 kPa | vapor or sublimation pressure (316.2 K): 0.05285 ± 0.0053 kPa | vapor or sublimation pressure (318.1 K): 0.06049 ± 0.006 kPa | vapor or sublimation pressure (318.3 K): 0.06276 ± 0.0063 kPa | vapor or sublimation pressure (319.2 K): 0.0664 ± 0.0066 kPa | vapor or sublimation pressure (320.2 K): 0.07343 ± 0.0074 kPa | vapor or sublimation pressure (320.3 K): 0.06968 ± 0.007 kPa | vapor or sublimation pressure (321.4 K): 0.07692 ± 0.0077 kPa | vapor or sublimation pressure (323.2 K): 0.09072 ± 0.0091 kPa | vapor or sublimation pressure (323.3 K): 0.08542 ± 0.0086 kPa and 0.09398 ± 0.0094 kPa | vapor or sublimation pressure (325.2 K): 0.1033 ± 0.01 kPa and 0.1021 ± 0.01 kPa | vapor or sublimation pressure (327.1 K): 0.1263 ± 0.013 kPa | vapor or sublimation pressure (328.3 K): 0.1276 ± 0.013 kPa | vapor or sublimation pressure (329.2 K): 0.148 ± 0.015 kPa | vapor or sublimation pressure (330.2 K): 0.1428 ± 0.014 kPa | vapor or sublimation pressure (331.3 K): 0.1646 ± 0.016 kPa | vapor or sublimation pressure (333.1 K): 0.1752 ± 0.018 kPa | vapor or sublimation pressure (333.2 K): 0.1798 ± 0.018 kPa | vapor or sublimation pressure (335.3 K): 0.1977 ± 0.02 kPa and 0.2051 ± 0.021 kPa | vapor or sublimation pressure (338.3 K): 0.2474 ± 0.025 kPa and 0.2598 ± 0.026 kPa | vapor or sublimation pressure (340.2 K): 0.2719 ± 0.027 kPa | vapor or sublimation pressure (341.3 K): 0.3017 ± 0.03 kPa | vapor or sublimation pressure (343.1 K): 0.3382 ± 0.034 kPa | vapor or sublimation pressure (343.2 K): 0.3425 ± 0.034 kPa | vapor or sublimation pressure (345.2 K): 0.3651 ± 0.037 kPa | vapor or sublimation pressure (348.1 K): 0.4368 ± 0.044 kPa | Critical pressure: 2770 ± 160 kPa | Critical temperature: 682 ± 14 K

COC(=O)CCCCCCCCC(=O)OC [dimethyl sebacate]
vapor or sublimation pressure (304.1 K): 0.00014 ± 2e-05 kPa | vapor or sublimation pressure (308.1 K): 0.0002 ± 2e-05 kPa | vapor or sublimation pressure (313.2 K): 0.00036 ± 4e-05 kPa | vapor or sublimation pressure (318.2 K): 0.00059 ± 6e-05 kPa | vapor or sublimation pressure (323.4 K): 0.00101 ± 0.0001 kPa | vapor or sublimation pressure (328.3 K): 0.00162 ± 0.00016 kPa | vapor or sublimation pressure (333.4 K): 0.0025 ± 0.00025 kPa | vapor or sublimation pressure (338.4 K): 0.00388 ± 0.00039 kPa | vapor or sublimation pressure (343.5 K): 0.00594 ± 0.00059 kPa | vapor or sublimation pressure (348.2 K): 0.00839 ± 0.00084 kPa | vapor or sublimation pressure (353.6 K): 0.01405 ± 0.0014 kPa | vapor or sublimation pressure (355.6 K): 0.01486 ± 0.0015 kPa | vapor or sublimation pressure (358.6 K): 0.01849 ± 0.0019 kPa | vapor or sublimation pressure (363.7 K): 0.02808 ± 0.0028 kPa | vapor or sublimation pressure (368.8 K): 0.03965 ± 0.004 kPa | vapor or sublimation pressure (373.8 K): 0.05473 ± 0.0055 kPa | Critical pressure: 2080 ± 120 kPa | Critical temperature: 742 ± 14 K
